The results in this text go back to US10695337B2, “Piperidin-4-yl azetidine derivatives as JAK1 inhibitors” (Incyte Corporation, priority 2010, dated 2020).

The target in this assay is human JAK1 (a.a. 837-1142). Briefly: In vitro JAK kinase assay (HTRF, phosphorylation of a biotinylated peptide), JAK1. Type of assay: biochemical. As to conditions: measured at 1 mM ATP; JAK2 IC50 / JAK1 IC50. As to the method:
Compounds herein were tested for inhibitory activity of JAK targets according to the following in vitro assay described in Park et al., Analytical Biochemistry 1999, 269, 94-104. The catalytic domains of human JAK1 (a.a. 837-1142), Jak2 (a.a. 828-1132) and Jak3 (a.a. 781-1124) with an N-terminal His tag were expressed using baculovirus in insect cells and purified. The catalytic activity of JAK1, JAK2 or JAK3 was assayed by measuring the phosphorylation of a biotinylated peptide. The phosphorylated peptide was detected by homogenous time resolved fluorescence (HTRF). […] Reactions were carried out at room temperature for 1 hr and then stopped with 20 μL 45 mM EDTA, 300 nM SA-APC, 6 nM Eu-Py20 in assay buffer (Perkin Elmer, Boston, Mass.). Binding to the Europium labeled antibody took place for 40 minutes and HTRF signal was measured on a Fusion plate reader (Perkin Elmer, Boston, Mass.).
For orientation: In TR-FRET formats the signal depends on donor and acceptor labels being close together.

Turning to `N#CCC1(n2cc(-c3ncnc4[nH]ccc34)cn2)CN(C2CCN(C(=O)c3cc(F)cc(Br)c3)CC2)C1` [Example 29, {1-[1-(3-bromo-5-fluorobenzoyl)piperidin-4-yl]-3-[4-(7H-pyrrolo[2,3-d]pyrimidin-4-yl)-1H-pyrazol-1-yl]azetidin-3-yl}acetonitrile], the “IC50 Ratio JAK2/JAK1” value was 7.2.
As for `N#CCC1(n2cc(-c3c(F)cnc4[nH]ccc34)cn2)CN(C2CCN(C(=O)Nc3cnccc3C(F)(F)F)CC2)C1` [Example 330, 4-{3-(cyanomethyl)-3-[4-(5-fluoro-1H-pyrrolo[2,3-b]pyridin-4-yl)-1H-pyrazol-1-yl]azetidin-1-yl}-N-[4-(trifluoromethyl)pyridin-3-yl]piperidine-1-carboxamide], the figure is 6.7; as for `N#CCC1(n2cc(-c3ncnc4[nH]ccc34)cn2)CN(C2CCN(C(=O)Nc3ccsc3)CC2)C1` [Example 179, 4-{3-(cyanomethyl)-3-[4-(7H-pyrrolo[2,3-d]pyrimidin-4-yl)-1H-pyrazol-1-yl]azetidin-1-yl}-N-3-thienylpiperidine-1-carboxamide], 3.8; as for `N#CCC1(n2cc(-c3c(F)cnc4[nH]ccc34)cn2)CN(C2CCN(C(=O)Nc3ncccc3C(F)(F)F)CC2)C1` [Example 329, 4-{3-(cyanomethyl)-3-[4-(5-fluoro-1H-pyrrolo[2,3-b]pyridin-4-yl)-1H-pyrazol-1-yl]azetidin-1-yl}-N-[3-(trifluoromethyl)pyridin-2-yl]piperidine-1-carboxamide], 4.5.
As for `N#CCC1(n2cc(-c3ncnc4[nH]ccc34)cn2)CN(C2CCN(C(=O)c3ccc(Cl)s3)CC2)C1` [Example 77, {1-{1-[(5-chloro-2-thienyl)carbonyl]piperidin-4-yl}-3-[4-(7H-pyrrolo[2,3-d]pyrimidin-4-yl)-1H-pyrazol-1-yl]azetidin-3-yl}acetonitrile], the figure is 5.5.
As for `N#CCC1(n2cc(-c3ccnc4[nH]ccc34)cn2)CN(C2CCN(C(=O)Nc3ccc(F)cc3Cl)CC2)C1` [Example 305, N-(2-chloro-4-fluorophenyl)-4-{3-(cyanomethyl)-3-[4-(1H-pyrrolo[2,3-b]pyridin-4-yl)-1H-pyrazol-1-yl]azetidin-1-yl}piperidine-1-carboxamide], the figure is 16.0; as for `N#CCC1(n2cc(-c3ccnc4[nH]ccc34)cn2)CN(C2CCN(C(=O)C3CCC(F)(F)CC3)CC2)C1` [Example 302, {1-{1-[(4,4-difluorocyclohexyl)carbonyl]piperidin-4-yl}-3-[4-(1H-pyrrolo[2,3-b]pyridin-4-yl)-1H-pyrazol-1-yl]azetidin-3-yl}acetonitrile], 6.5.
As for `CN(C)c1ccc(S(=O)(=O)N2CCC(N3CC(CC#N)(n4cc(-c5ncnc6[nH]ccc56)cn4)C3)CC2)cc1C#N` [Example 250, 5-[(4-{3-(cyanomethyl)-3-[4-(7H-pyrrolo[2,3-d]pyrimidin-4-yl)-1H-pyrazol-1-yl]azetidin-1-yl}piperidin-1-yl)sulfonyl]-2-(dimethylamino)benzonitrile], the “IC50 Ratio JAK2/JAK1” value is listed as 4.7.
As for `COc1ccc(OC)c(NC(=O)N2CCC(N3CC(CC#N)(n4cc(-c5ncnc6[nH]ccc56)cn4)C3)CC2)c1` [Example 186, 4-{3-(cyanomethyl)-3-[4-(7H-pyrrolo[2,3-d]pyrimidin-4-yl)-1H-pyrazol-1-yl]azetidin-1-yl}-N-(2,5-dimethoxyphenyl)piperidine-1-carboxamide], the figure is 5.5; as for `N#CCC1(n2cc(-c3ccnc4[nH]ccc34)cn2)CN(C2CCN(C(=O)c3cc(C(F)(F)F)ncc3Cl)CC2)C1` [Example 298, {1-{1-[5-chloro-2-(trifluoromethyl)isonicotinoyl]piperidin-4-yl}-3-[4-(1H-pyrrolo[2,3-b]pyridin-4-yl)-1H-pyrazol-1-yl]azetidin-3-yl}acetonitrile], 2.8.
The figure for `N#CCC1(n2cc(-c3ncnc4[nH]ccc34)cn2)CN(C2CCN(C(=O)C3(c4ccc(Cl)cc4)CC3)CC2)C1` [Example 111, {1-(1-{[1-(4-chlorophenyl)cyclopropyl]carbonyl}piperidin-4-yl)-3-[4-(7H-pyrrolo [2,3-d]pyrimidin-4-yl)-1H-pyrazol-1-yl]azetidin-3-yl}acetonitrile] is 2.6; for `N#CCC1(n2cc(-c3c(F)cnc4[nH]ccc34)cn2)CN(C2CCN(C(=O)c3ccc(F)c(C#N)c3)CC2)C1` [Example 318, 5-[(4-{3-(cyanomethyl)-3-[4-(5-fluoro-1H-pyrrolo[2,3-b]pyridin-4-yl)-1H-pyrazol-1-yl]azetidin-1-yl}piperidin-1-yl)carbonyl]-2-fluorobenzonitrile] it is 4.7.
In the case of `CCn1nccc1NC(=O)N1CCC(N2CC(CC#N)(n3cc(-c4ncnc5[nH]ccc45)cn3)C2)CC1` [Example 196, 4-{3-(cyanomethyl)-3-[4-(7H-pyrrolo[2,3-d]pyrimidin-4-yl)-1H-pyrazol-1-yl]azetidin-1-yl}-N-(1-ethyl-1H-pyrazol-5-yl)piperidine-1-carboxamide], the “IC50 Ratio JAK2/JAK1” value was determined as 9.9.
With `N#CCC1(n2ccc(-c3ncnc4[nH]ccc34)c2)CN(C2CCN(C(=O)Nc3ncccc3F)CC2)C1` [Example 292, 4-{3-(cyanomethyl)-3-[3-(7H-pyrrolo[2,3-d]pyrimidin-4-yl)-1H-pyrrol-1-yl]azetidin-1-yl}-N-(3-fluoropyridin-2-yl)piperidine-1-carboxamide], the “IC50 Ratio JAK2/JAK1” value came out at 9.1.
The figure for `COC(=O)c1ccccc1NC(=O)N1CCC(N2CC(CC#N)(n3cc(-c4ncnc5[nH]ccc45)cn3)C2)CC1` [Example 206, methyl 2-{[(4-{3-(cyanomethyl)-3-[4-(7H-pyrrolo[2,3-d]pyrimidin-4-yl)-1H-pyrazol-1-yl]azetidin-1-yl}piperidin-1-yl)carbonyl]amino}benzoate] is 1.6.
The figure for `N#CCC1(n2cc(-c3ncnc4[nH]ccc34)cn2)CN(C2CCN(C(=O)c3cnc4ccccc4c3)CC2)C1` [Example 88, {3-[4-(7H-pyrrolo[2,3-d]pyrimidin-4-yl)-1H-pyrazol-1-yl]-1-[1-(quinolin-3-ylcarbonyl)piperidin-4-yl]azetidin-3-yl}acetonitrile] is 0.9; for `N#CCC1(n2cc(-c3ncnc4[nH]ccc34)cn2)CN(C2CCN(C(=O)c3ccc(-c4ccccc4)cc3)CC2)C1` [Example 114, {1-[1-(biphenyl-4-ylcarbonyl)piperidin-4-yl]-3-[4-(7H-pyrrolo[2,3-d]pyrimidin-4-yl)-1H-pyrazol-1-yl]azetidin-3-yl}acetonitrile] it is 1.5; for `N#CCC1(n2cc(-c3ncnc4[nH]ccc34)cn2)CN(C2CCN(C(=O)Nc3ccc(C(F)(F)F)cc3)CC2)C1` [Example 167, 4-{3-(cyanomethyl)-3-[4-(7H-pyrrolo[2,3-d]pyrimidin-4-yl)-1H-pyrazol-1-yl]azetidin-1-yl}-N-[4-(trifluoromethyl)phenyl]piperidine-1-carboxamide] it is 2.0.
The figure for `N#CCC1(n2cc(-c3ncnc4[nH]ccc34)cn2)CN(C2CCN(C(=O)c3cc(F)ccc3F)CC2)C1` [Example 43, {1-[1-(2,5-difluorobenzoyl)piperidin-4-yl]-3-[4-(7H-pyrrolo[2,3-d]pyrimidin-4-yl)-1H-pyrazol-1-yl]azetidin-3-yl}acetonitrile] is 5.0.
Take `Cc1ncccc1NC(=O)N1CCC(N2CC(CC#N)(n3cc(-c4ncnc5[nH]ccc45)cn3)C2)CC1` [Example 198, 4-{3-(cyanomethyl)-3-[4-(7H-pyrrolo[2,3-d]pyrimidin-4-yl)-1H-pyrazol-1-yl]azetidin-1-yl}-N-(2-methylpyridin-3-yl)piperidine-1-carboxamide]: the “IC50 Ratio JAK2/JAK1” value is recorded as 4.4.
The figure for `N#CCC1(n2cc(-c3ncnc4[nH]ccc34)cn2)CN(C2CCN(C(=O)C3CCc4ccccc4C3)CC2)C1` (stereo not shown) [Example 97, {3-[4-(7H-pyrrolo[2,3-d]pyrimidin-4-yl)-1H-pyrazol-1-yl]-1-[1-(1,2,3,4-tetrahydronaphthalen-2-ylcarbonyl)piperidin-4-yl]azetidin-3-yl}acetonitrile] is 2.2; for `N#CCC1(n2cc(-c3ccnc4[nH]ccc34)cn2)CN(C2CCN(C(=O)c3ccc(O)cc3F)CC2)C1` [Example 297, {1-[1-(2-fluoro-4-hydroxybenzoyl)piperidin-4-yl]-3-[4-(1H-pyrrolo[2,3-b]pyridin-4-yl)-1H-pyrazol-1-yl]azetidin-3-yl}acetonitrile] it is 10.0; for `N#CCC1(n2cc(-c3ncnc4[nH]ccc34)cn2)CN(C2CC3CCC(C2)N3C(=O)c2ccc(F)c(F)c2)C1` (stereo not shown) [Example 139, {1-[8-(3,4-difluorobenzoyl)-8-azabicyclo[3.2.1]oct-3-yl]-3-[4-(7H-pyrrolo[2,3-d]pyrimidin-4-yl)-1H-pyrazol-1-yl]azetidin-3-yl}acetonitrile] it is 4.4.
As for `N#CCC1(n2cc(-c3ccnc4[nH]ccc34)cn2)CN(C2CCN(C(=O)c3cnc(C(F)(F)F)cn3)CC2)C1` [Example 301, [3-[4-(1H-pyrrolo[2,3-b]pyridin-4-yl)-1H-pyrazol-1-yl]-1-(1-{[5-(trifluoromethyl)pyrazin-2-yl]carbonyl}piperidin-4-yl)azetidin-3-yl]acetonitrile], the figure is 3.3; as for `N#CCC1(n2cc(-c3c(C#N)cnc4[nH]ccc34)cn2)CN(C2CCN(C(=O)c3cc(C#N)ccc3C#N)CC2)C1` [Example 337, 2-[(4-{3-(cyanomethyl)-3-[4-(5-cyano-1H-pyrrolo[2,3-b]pyridin-4-yl)-1H-pyrazol-1-yl]azetidin-1-yl}piperidin-1-yl)carbonyl]terephthalonitrile], 6.0.
